Two compounds from patent US6677141B2, “Edible compositions of Bacillus subtilis natto cells containing water-soluble vitamin K” (Honda Trading Corporation, priority 1998, dated 2004) can be followed below.

Series [1] in a line: MK-7 level in plasma after oral ingestion by healthy adults (HPLC). The series is classed as in vivo, human (healthy adults). The protocol: The measurement of the amounts of MK-7, MK-4, and vitamin K1 by the high-performance liquid chromatography (HPLC) makes use of the phenomenon that vitamin K is reduced by a platinum-alumina catalyst into a hydroquinone compound and made to form a fluorescent substance. To be more specific, this measurement is carried out under the following conditions.
Then, five healthy adults were each caused to ingest 1 g of the dry cells at 10 o'clock every morning. After the elapse of a prescribed interval, blood was collected from each of the healthy adults and was tested for MK-7 level in the plasma. The time-course changes of MK-7 level in the plasma were investigated.
Five healthy adults were each caused to ingest 1 g of dry cells (containing 1.8×10^10 live cells) of Nitto strain (made by Nitto Yakuhin Kogyo K.K. in Kyoto) at 10 o'clock every morning. Then, blood was collected from the adults along the course of time. The plasma was separated from the collected blood and tested for MK-7 level in the plasma in the same manner as in Example 1.
As a control, five healthy adults were caused to ingest purified MK-7 in place of the dry cells of Bacillus subtilis natto mentioned above. The plasma similarly obtained from each of the healthy adults was tested for MK-7 level in the plasma.
The cultured product thus obtained was washed with distilled water and then freeze-dried. Five healthy adults (A to E) were each caused to ingest an enteric capsule in which 1 g of freeze-dried product (containing 5×10^11 cells/g of dried product) was filled. In this case, the MK-7 content was determined by the Soxhlet-HPLC method method, to find to be 708.0 μg/g of dried product. At prescribed points, blood was collected from the adults along the course of time. The plasma MK-7 level was tested in the same manner as in Example 1.
Five healthy adults (21 to 63 years old, male) requested to abstain from breakfast were each made to ingest 1,000 μg of the water-soluble vitamin K derivative containing the water-soluble MK-7 derivative prepared in Example 9 at 10 o'clock in the morning. Blood was collected from the healthy adults along the course of time after the ingestion and measured for the level of the water-soluble MK-7 derivative in plasma. As a control, the experiment was repeated with the ingestion of 1,000 μg of purified MK-7 instead.

Series [2] can be described thus: Photostability: amount of MK-7 on exposure to the light from a fluorescent lamp. Type of series: physicochemical. To be noted: room temperature. The protocol: This dry MK-7 was exposed to the light from a fluorescent lamp at room temperature for 5 hours. In this case, the amount of MK-7 was measured along the course of time in the same manner as in Example 6. The results are shown in FIG. 7 (indicated by empty circle (◯) marks).
The fat-soluble MK-7 thus prepared was dried to obtain a dry product of MK-7. This dry product of MK-7 was irradiated with the light from a fluorescent lamp at room temperature for 5 hours and then tested for the fat-soluble MK-7 content in the same manner as in Example 6. The results are shown in FIG. 7 (indicated by filled square (▪) marks).

[3] abbreviates: oral, 1 g dry cells (about 1.8 × 10^10 cells/g) or about 51.0 μg purified MK-7, average ± SD, n = 5.

On to `CC(C)=CCC/C(C)=C/CC/C(C)=C/CC/C(C)=C/CC/C(C)=C/CC/C(C)=C/CC/C(C)=C/CC1=C(C)C(=O)c2ccccc2C1=O` [Purified MK-7, menaquinone-7], for which, in series [1] (Example 14, oral 1,000 μg), the “Level in plasma on the 24th hour after the ingestion” value came out at 3.2 ± 2.3 ng/mL. In addition, the “Concentration of MK-7 in plasma (after the elapse of) 0 hour” value in series [1] (before ingestion, oral, 1 g dry cells (about 1.8 × 10^10 cells/g) or about 51.0 μg purified MK-7, average ± standard deviation, n = 5) was determined as 1.3 ± 1.1. Moreover, in series [1] (setting [3]), the “Concentration of MK-7 in plasma (after the elapse of) 4 hours” value is 11.2 ± 2.8, the “Concentration of MK-7 in plasma (after the elapse of) 8 hours” value turned out to be 7.3 ± 1.6, the “Concentration of MK-7 in plasma (after the elapse of) 12 hours” value is on record as 4.3 ± 1.0 and the “Concentration of MK-7 in plasma (after the elapse of) 24 hours” value was determined as 2.2 ± 1.0. In series [1] (setting [3]), the “Concentration of MK-7 in plasma (after the elapse of) 32 hours” value is reported as 1.4 ± 0.7 ^┘ and the “Concentration of MK-7 in plasma (after the elapse of) 48 hours” value was 1.4 ± 0.9 ^┘.
Take `CC(C)=CCC/C(C)=C/CC/C(C)=C/CC/C(C)=C/CC/C(C)=C/CC/C(C)=C/CC/C(C)=C/CC1=C(C)C(=O)c2ccccc2C1=O` [fat-soluble MK-7]: the “Exposure time to the fluorescent lamp after which the amount of MK-7 could not be measured” value in series [2] is “about 3 hours”.
